Experimental findings from US10246439B2, “Apoptosis signal-regulating kinase 1 inhibitors and methods of use thereof” (ENANTA PHARMACEUTICALS, INC., priority 2017, dated 2019) are described below.

As a reminder, the IC50 is the concentration that inhibits the measured activity by half. Low readings indicate inhibition by little substance, high ones a need for much substance.

The assay has as its target T1, ASK1 (Homo sapiens, UniProt Q99683).
T1 construct: purchased Thermofisher PV4011
T1 sequence (Q99683 1-1374): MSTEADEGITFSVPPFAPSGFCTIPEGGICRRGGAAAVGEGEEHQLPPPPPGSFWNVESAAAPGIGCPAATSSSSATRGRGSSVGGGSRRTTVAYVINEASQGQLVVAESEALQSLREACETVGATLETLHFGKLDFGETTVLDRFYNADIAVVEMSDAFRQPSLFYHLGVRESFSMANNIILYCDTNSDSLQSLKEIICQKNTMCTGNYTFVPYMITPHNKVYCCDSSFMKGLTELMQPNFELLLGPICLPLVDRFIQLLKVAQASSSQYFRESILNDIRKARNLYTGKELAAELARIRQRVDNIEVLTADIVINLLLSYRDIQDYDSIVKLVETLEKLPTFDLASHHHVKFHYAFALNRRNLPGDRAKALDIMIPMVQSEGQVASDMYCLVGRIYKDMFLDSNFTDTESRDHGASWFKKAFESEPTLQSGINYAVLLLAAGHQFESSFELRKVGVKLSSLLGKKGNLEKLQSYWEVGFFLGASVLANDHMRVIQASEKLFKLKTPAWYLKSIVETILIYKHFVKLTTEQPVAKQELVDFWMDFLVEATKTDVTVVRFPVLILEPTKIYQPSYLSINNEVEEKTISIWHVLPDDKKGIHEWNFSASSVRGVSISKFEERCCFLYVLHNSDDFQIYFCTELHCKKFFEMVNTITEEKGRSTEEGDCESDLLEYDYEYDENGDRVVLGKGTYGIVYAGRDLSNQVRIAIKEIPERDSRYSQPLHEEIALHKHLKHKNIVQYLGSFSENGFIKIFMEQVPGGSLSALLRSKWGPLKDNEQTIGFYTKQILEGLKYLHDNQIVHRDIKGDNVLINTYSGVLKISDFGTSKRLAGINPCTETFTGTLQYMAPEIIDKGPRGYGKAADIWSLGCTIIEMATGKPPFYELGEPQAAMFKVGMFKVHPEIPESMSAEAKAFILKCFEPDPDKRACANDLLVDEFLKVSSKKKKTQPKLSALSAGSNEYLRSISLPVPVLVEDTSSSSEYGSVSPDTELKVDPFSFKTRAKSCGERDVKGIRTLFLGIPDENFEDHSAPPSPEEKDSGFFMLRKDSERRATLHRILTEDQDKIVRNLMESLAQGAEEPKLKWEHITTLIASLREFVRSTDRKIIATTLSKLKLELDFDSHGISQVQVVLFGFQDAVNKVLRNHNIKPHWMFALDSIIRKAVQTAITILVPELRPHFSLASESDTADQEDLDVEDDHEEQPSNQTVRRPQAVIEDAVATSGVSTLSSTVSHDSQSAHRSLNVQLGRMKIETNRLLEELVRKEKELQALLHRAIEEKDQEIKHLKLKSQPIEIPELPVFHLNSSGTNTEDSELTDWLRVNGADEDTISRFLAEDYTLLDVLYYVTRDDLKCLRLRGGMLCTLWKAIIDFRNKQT
Briefly: HTRF KinEASE-STK TR-FRET kinase assay, inhibition of ASK1. In kind it is biochemical. The conditions noted are these: 5 nM ASK1, 1 uM STK3 peptide substrate, 100 uM ATP. The method, then:
ASK1 was purchased from Thermofisher (Catalogue # PV4011), ATP was purchased from Sigma (Catalogue # A7699), HTRF® KinEASE™ Assay System was obtained from Cisbio (Bedford, Mass.). ½ Area plate was purchased from Perkin Elmer (Catalogue # #6005560). HTRF® KinEASE™-STK is a generic method for measuring serine/threonine kinase activities using a time-resolved fluorescence resonance energy transfer (TR-FRET) immunoassay. The IC50 value for each compound was determined in the presence of compound (various concentration from 0 to 10 μM) and a fixed amount of ATP and peptide substrates. The test compound, 1 uM STK3 peptide substrate, and 5 nM of ASK1 kinase are incubated with kinase reaction buffer containing 50 mM HEPES pH 7.5, 0.01% BRIJ-35, 10 mM MgCl2, and 1 mM EGTA for 30 minutes. 100 uM ATP is added to start kinase reaction and incubated for 3 hours. The STK3-antibody labeled with Eu^3+-Cryptate and 125 nM streptavidin-XL665 are mixed in a single addition with stop reagents provided by the Cisbio kit used to stop the kinase reaction. Fluorescence is detected using an Envision Multilabeled 2014 reader from PerkinElmer. The Fluorescence is measured at 615 nm (Cryptate) and 665 nm (XL665) and a ratio of 665 nm/615 nm is calculated for each well. The resulting TR-FRET is proportional to the phosphorylation level. Staurosporine was used as the positive control. IC50 was determined by XLfit 5.3.
On the technique in general: In TR-FRET formats the signal depends on donor and acceptor labels being close together.
On to `CC(C)n1cnnc1-c1cccc(NC(=O)c2cc3sc(C4CCC4)nc3cn2)n1` [Example 67], for which the concentration for half-maximal inhibition (IC50) was in the range of 10 to 100 nM.
For `CC(C)n1nnnc1-c1cccc(NC(=O)c2cc3sc(NC4CC4)nc3cc2F)n1` [Example 38], the 50% inhibitory concentration (IC50) is greater than 1000 nM.
On to `CC(C)n1cnnc1-c1cccc(NC(=O)c2ccc3nc(-c4ccc(C(C)(C)C)cc4)sc3c2)n1` [Example 58, 2-(4-(tert-butyl)phenyl)-N-(6-(4-isopropyl-4H-1,2,4-triazol-3-yl)pyridin-2-yl)benzo[d]thiazole-6-carboxamide], for which the IC50 was greater than 1000 nM.
In the case of `CC(C)n1cnnc1-c1cccc(NC(=O)c2cc3sc(C4CC4)nc3cc2F)n1` [Example 7, 2-cyclopropyl-5-fluoro-N-(6-(4-isopropyl-4H-1,2,4-triazol-3-yl)pyridin-2-yl)benzo[d]thiazole-6-carboxamide], the concentration for half-maximal inhibition (IC50) was 10 to 100 nM.
With `CC(C)n1cnnc1-c1cccc(NC(=O)c2cc3sc(NCC4CC4)nc3cc2F)n1` [Example 48], the concentration for half-maximal inhibition (IC50) lay within 10 to 100 nM.
The compound `CC(C)n1nnnc1-c1cccc(NC(=O)c2cc3sc(NC4CCCCC4)nc3cc2F)n1` [Example 34] came in with an IC50 greater than 1000 nM.
In the case of `CC(C)n1nnnc1-c1cccc(NC(=O)c2cc3sc(N4CCN(C5CC5)CC4)nc3cc2F)n1` [Example 42], the IC50 is greater than 1000 nM.
In turn, `CC(C)n1cnnc1-c1cccc(NC(=O)c2ccc3nc(N4CC5CCC(C4)O5)sc3c2)n1` [Example 17] returned an IC50 of 10 to 100 nM.
Consider `CCCCN(C)c1nc2cc(F)c(C(=O)Nc3cccc(-c4nncn4C(C)C)n3)cc2s1` [Example 9], for which the IC50 is 1 to 10 nM.
In turn, `CC(C)n1cnnc1-c1cccc(NC(=O)c2cc3sc(N4CCC4)nc3cc2F)n1` [Example 28] showed an IC50 of 1 to 10 nM.
Take `CC(C)n1nnnc1-c1cccc(NC(=O)c2cc3sc(N4CCN(C(C)(C)C)CC4)nc3cc2F)n1` [Example 3, 2-(4-(tert-butyl)piperazin-1-yl)-5-fluoro-N-(6-(1-isopropyl-1H-tetrazol-5-yl)pyridin-2-yl)benzo[d]thiazole-6-carboxamide]: the IC50 was greater than 1000 nM.
For the compound `CC(C)n1cnnc1-c1cccc(NC(=O)c2cc3sc(NC4CCCCC4)nc3cc2F)n1` [Example 26], the 50% inhibitory concentration (IC50) lay within 1 to 10 nM.
Consider `CC(C)Nc1nc2ccc(C(=O)Nc3cccc(-c4nncn4C(C)C)n3)cc2s1` [Example 56], for which the concentration for half-maximal inhibition (IC50) was 100 to 1000 nM.
Consider `CC(C)n1cnnc1-c1cccc(NC(=O)c2cc3sc(N(C)C)nc3cn2)n1` [Example 64], for which the IC50 was in the range of 10 to 100 nM.
For `CC(C)n1cnnc1-c1cccc(NC(=O)c2ccc3nc(N4CCN(C(C)(C)C)CC4)sc3c2)n1` [Example 59] the value was 10 to 100 nM; for `CC(C)n1cnnc1-c1cccc(NC(=O)c2ccc3nc(-c4ccccc4)sc3c2)n1` [Example 22], 100 to 1000 nM; for `CC(C)n1cnnc1-c1cccc(NC(=O)c2cc3sc(N(C)C4CC4)nc3cc2F)n1` [Example 10], 1 to 10 nM.
For `CC(C)n1nnnc1-c1cccc(NC(=O)c2cc3sc(N4CCCCC4)nc3cn2)n1` [Example 62] the value was greater than 1000 nM.
Take `CC(C)n1nnnc1-c1cccc(NC(=O)c2cc3sc(N(C)C4CC4)nc3cc2F)n1` [Example 32]: the IC50 is greater than 1000 nM.
Regarding `CC(C)n1cnnc1-c1cccc(NC(=O)c2ccc3nc(NC4CCCCC4)sc3c2)n1` [Example 24], the half-maximal inhibitory concentration (IC50) was 10 to 100 nM.
The compound `CCCCN(C)c1nc2cc(F)c(C(=O)Nc3cccc(-c4nnnn4C(C)C)n3)cc2s1` [Example 43] returned a 50% inhibitory concentration (IC50) greater than 1000 nM.
`CC(C)n1nnnc1-c1cccc(NC(=O)c2cc3sc(C4CCC4)nc3cc2F)n1` [Example 36] yielded an IC50 of 100 to 1000 nM.
Compound `CC(C)n1cnnc1-c1cccc(NC(=O)c2cc3sc(NC4CC4)nc3cc2F)n1` [Example 6, 2-(cyclopropylamino)-5-fluoro-N-(6-(4-isopropyl-4H-1,2,4-triazol-3-yl)pyridin-2-yl)benzo[d]thiazole-6-carboxamide] showed an IC50 of 1 to 10 nM.
For the compound `CC(C)n1cnnc1-c1cccc(NC(=O)c2cc3sc(N4CCN(C5CC5)CC4)nc3cc2F)n1` [Example 12], the IC50 lay in the range of 1 to 10 nM.
As to `CC(C)n1cnnc1-c1cccc(NC(=O)c2ccc3nc(N4CCCCC4)sc3c2)n1` [Example 60, N-(6-(4-isopropyl-4H-1,2,4-triazol-3-yl)pyridin-2-yl)-2-(piperidin-1-yl)benzo[d]thiazole-6-carboxamide], the half-inhibitory concentration (IC50) lay in the range of 10 to 100 nM.
For `CC(C)n1cnnc1-c1cccc(NC(=O)c2cc3sc(N4CCOCC4)nc3cc2F)n1` [Example 16] the value was 1 to 10 nM; for `CCN(CC)c1nc2ccc(C(=O)Nc3cccc(-c4nncn4C(C)C)n3)cc2s1` [Example 57], 10 to 100 nM; for `CC(C)n1nnnc1-c1cccc(NC(=O)c2cc3sc(N(C)C4CCCCC4)nc3cc2F)n1` [Example 44], greater than 1000 nM.
With `CC(C)n1cnnc1-c1cccc(NC(=O)c2cc3sc(N4CCCCC4)nc3cc2F)n1` [Example 30, 5-fluoro-N-(6-(4-isopropyl-4H-1,2,4-triazol-3-yl)pyridin-2-yl)-2-(piperidin-1-yl)benzo[d]thiazole-6-carboxamide], the half-maximal inhibitory concentration (IC50) fell in the range of 1 to 10 nM.
For `CC(C)n1nnnc1-c1cccc(NC(=O)c2cc3sc(N4CCOCC4)nc3cn2)n1` [Example 72], the IC50 is greater than 1000 nM.
As to `CC(C)n1nnnc1-c1cccc(NC(=O)c2cc3sc(N(C)C)nc3cn2)n1` [Example 75], the IC50 was 10 to 100 nM.
For `CCCCNc1nc2cc(F)c(C(=O)Nc3cccc(-c4nncn4C(C)C)n3)cc2s1` [Example 27] the value was 1 to 10 nM; for `CC(C)n1cnnc1-c1cccc(NC(=O)c2ccc3nc(N4CC5CC5C4)sc3c2)n1` (stereo not drawn) [Example 52], 10 to 100 nM; for `CC(C)n1cnnc1-c1cccc(NC(=O)c2ccc3nc(N4CCCC4)sc3c2)n1` [Example 20], 100 to 1000 nM.
`CC(C)n1nnnc1-c1cccc(NC(=O)c2cc3sc(N(C)CC4CC4)nc3cc2F)n1` [Example 39] gave a half-inhibitory concentration (IC50) greater than 1000 nM.
In the case of `CC(C)n1cnnc1-c1cccc(NC(=O)c2ccc3nc(N4CCC(F)(F)CC4)sc3c2)n1` [Example 19], the 50% inhibitory concentration (IC50) lay within 10 to 100 nM.
For `CNc1nc2cc(F)c(C(=O)Nc3cccc(-c4nnnn4C(C)C)n3)cc2s1` [Example 33] the value was greater than 1000 nM.
As to `CC(C)n1cnnc1-c1cccc(NC(=O)c2ccc3ncsc3c2)n1` [Example 2, N-(6-(4-isopropyl-4H-1,2,4-triazol-3-yl)pyridin-2-yl)benzo[d]thiazole-6-carboxamide], the IC50 fell in the range of 100 to 1000 nM.
Turning to `CC(C)n1cnnc1-c1cccc(NC(=O)c2cc3sc(N4CCN(C(C)(C)C)CC4)nc3cc2F)n1` [Example 15], the half-inhibitory concentration (IC50) was in the range of 10 to 100 nM.
Compound `CC(C)n1cnnc1-c1cccc(NC(=O)c2cc3sc(N4CCCC4)nc3cc2F)n1` [Example 50] had an IC50 of 1 to 10 nM.
`CC(C)N(c1nc2ccc(C(=O)Nc3cccc(-c4nncn4C(C)C)n3)cc2s1)C(C)C` [Example 53, 2-(diisopropylamino)-N-(6-(4-isopropyl-4H-1,2,4-triazol-3-yl)pyridin-2-yl)benzo[d]thiazole-6-carboxamide] registered an IC50 of 10 to 100 nM.
`CC(C)n1cnnc1-c1cccc(NC(=O)c2ccc3nc(N4CC5(COC5)C4)sc3c2)n1` [Example 18]: the half-inhibitory concentration (IC50) fell in the range of 10 to 100 nM.
